Test results taken from paper PMC12157126, “Saturation kinetics and specificity of transporters for L-arginine and asymmetric dimethylarginine (ADMA) at the blood-brain and blood-CSF barriers” (PLOS One, 2025).
“And” between values parts separate entries of the source, which are not always exact repeats. Equal entries are not always repeated.

What was measured:
[1] = test system: blood-brain and blood-CSF barriers; test: In situ brain/choroid plexus perfusion with capillary depletion: CNS uptake of [3H]-arginine in absence and presence of transporter inhibitors; type: in vivo, adult male BALB/c mice; design: Difference (Arginine - Sucrose): unit not given here; settings: for uptake of [3H]-arginine: [14C]-sucrose corrected; for Arginine, tissue/plasma ratio / Difference (Arginine - Sucrose): 10 mins, 5ml/min, per mouse
Protocol: (§1) The in situ brain/choroid plexus perfusion method was performed as previously described and will only be briefly detailed here. […] At the end of the perfusion period a CSF sample was taken from the cisterna magna, the animal was decapitated, the brain removed and samples taken under a Leica S4E L2 stereomicroscope (Leica; Buckinghamshire, UK). […] The circumventricular organs (CVOs) including the choroid plexus, pituitary gland and pineal gland were also sampled. Brain samples were also taken for capillary depletion analysis.
(§2) Both the physiological capillary depletion buffer and dextran solution were maintained at 4 °C to halt any cell metabolism and transport processes, and to reduce any cellular or protein damage due to heat generated from the homogenisation process. The whole brain homogenate was then taken for dextran density centrifugation (5,400 x g) and 4 °C to produce an endothelial cell-enriched pellet and supernatant containing brain parenchyma.
(§3) The transporter proteins these inhibitors target are listed in S1 Table in S1 File.
(§4) % change=RTissue−RInhibition /RTissue× 100 (2)

[2] = test system: blood-brain and blood-CSF barriers; test: In situ brain/choroid plexus perfusion with capillary depletion: CNS uptake of [3H]-ADMA in absence and presence of transporter inhibitors; settings: for RBrain of [3H]-ADMA in presence of inhibitor: 10 min, sucrose corrected; for RBrain of [3H]-ADMA in presence of inhibitor / % inhibition of [3H]-ADMA uptake: L-homoarginine 20 mM
Protocol: as §1, §2, §3, §4

[3] = In situ brain/choroid plexus perfusion with capillary depletion: CNS uptake of [3H]-arginine in absence and presence of transporter inhibitors; type: in vivo, adult male BALB/c mice; design: Difference (Arginine - Sucrose): unit not given here; settings: male, BALB/c, mouse, 10 mins, 5ml/min, per mouse
Protocol: as §1, §2, §3, §4

[4] = caudate nucleus, BCH 4 mM, α-methyl-D,L-tryptophan 500 μM, L-phenylalanine 200 μM, L-leucine 5 mM, harmaline 2 mM
[5] = frontal cortex, BCH 4 mM, α-methyl-D,L-tryptophan 500 μM, L-phenylalanine 200 μM, L-leucine 5 mM, harmaline 2 mM
[6] = hippocampus, BCH 4 mM, α-methyl-D,L-tryptophan 500 μM, L-phenylalanine 200 μM, L-leucine 5 mM, harmaline 2 mM
[7] = hypothalamus, BCH 4 mM, α-methyl-D,L-tryptophan 500 μM, L-phenylalanine 200 μM, L-leucine 5 mM, harmaline 2 mM
[8] = occipital cortex, BCH 4 mM, α-methyl-D,L-tryptophan 500 μM, L-phenylalanine 200 μM, L-leucine 5 mM, harmaline 2 mM
[9] = pineal gland, BCH 4 mM, α-methyl-D,L-tryptophan 500 μM, L-phenylalanine 200 μM, L-leucine 5 mM, harmaline 2 mM
[10] = thalamus, BCH 4 mM, α-methyl-D,L-tryptophan 500 μM, L-phenylalanine 200 μM, L-leucine 5 mM, harmaline 2 mM

SMILES: NC(N)=NCCCC[C@H](N)C(=O)O [L-homoarginine, reference compound]
- inhibition of [3H]-arginine uptake ([1]; 20 mM L-homoarginine, all brain regions (up to), 10 min): up to 99.7%
- inhibition of [3H]-arginine distribution ([1]; 20 mM L-homoarginine, choroid plexus): 99.8%
- reduced uptake of [3H]-arginine ([1]; 20 mM L-homoarginine, hypothalamus, did not attain statistical significance): 98.0%
- inhibition of [3H]-arginine distribution ([1]; 20 mM L-homoarginine, pituitary gland): 97.6%
- decrease in [3H]-arginine distribution ([1]; L-homoarginine, CSF, failed to attain statistical significance (n=3)): 88.4%
- inhibition of [3H]-ADMA uptake ([2]; 20 mM L-homoarginine, all brain regions (up to)): up to 99.2%
- RBrain of [3H]-ADMA in presence of inhibitor ([2]; CSF, BCH 4 mM, α-methyl-D,L-tryptophan 500 μM, L-phenylalanine 200 μM, L-leucine 5 mM, harmaline 2 mM): 2.45±0.52 ml.100g^-1
- RBrain of [3H]-ADMA in presence of inhibitor [2, 4]: 0.18±0.13 ml.100g^-1
- % inhibition of [3H]-ADMA uptake [2, 4]: 99.2%
- RBrain of [3H]-ADMA in presence of inhibitor ([2]; cerebellum, BCH 4 mM, α-methyl-D,L-tryptophan 500 μM, L-phenylalanine 200 μM, L-leucine 5 mM, harmaline 2 mM): 0.37±0.19 ml.100g^-1
- % inhibition of [3H]-ADMA uptake ([2]; cerebellum): 97.9%
- RBrain of [3H]-ADMA in presence of inhibitor ([2]; choroid plexus, BCH 4 mM, α-methyl-D,L-tryptophan 500 μM, L-phenylalanine 200 μM, L-leucine 5 mM, harmaline 2 mM): 30.73±22.20 ml.100g^-1
- % inhibition of [3H]-ADMA uptake ([2]; choroid plexus, BCH 4 mM, L-phenylalanine 200 μM, L-leucine 5 mM, harmaline 2 mM): 88.2%
- RBrain of [3H]-ADMA in presence of inhibitor [2, 5]: 1.06±1.02 ml.100g^-1
- % inhibition of [3H]-ADMA uptake [2, 5]: 95.7%
- RBrain of [3H]-ADMA in presence of inhibitor [2, 6]: 0.20±0.13 ml.100g^-1
- % inhibition of [3H]-ADMA uptake [2, 6]: 99.1%
- RBrain of [3H]-ADMA in presence of inhibitor ([2]; homogenate, BCH 4 mM, α-methyl-D,L-tryptophan 500 μM, L-phenylalanine 200 μM, L-leucine 5 mM, harmaline 2 mM): 3.74±3.52 ml.100g^-1
- RBrain of [3H]-ADMA in presence of inhibitor [2, 7]: 1.54±1.12 ml.100g^-1
- % inhibition of [3H]-ADMA uptake [2, 7]: 94.9%
- RBrain of [3H]-ADMA in presence of inhibitor [2, 8]: 0.49±0.40 ml.100g^-1
- % inhibition of [3H]-ADMA uptake [2, 8]: 97.8%
- RBrain of [3H]-ADMA in presence of inhibitor ([2]; pellet, BCH 4 mM, α-methyl-D,L-tryptophan 500 μM, L-phenylalanine 200 μM, L-leucine 5 mM, harmaline 2 mM): 2.32±1.65 ml.100g^-1
- RBrain of [3H]-ADMA in presence of inhibitor [2, 9]: 12.43±6.87 ml.100g^-1
- % inhibition of [3H]-ADMA uptake [2, 9]: 93.6%
- RBrain of [3H]-ADMA in presence of inhibitor ([2]; pituitary gland, BCH 4 mM, α-methyl-D,L-tryptophan 500 μM, L-phenylalanine 200 μM, L-leucine 5 mM, harmaline 2 mM): 8.57±3.99 ml.100g^-1
- % inhibition of [3H]-ADMA uptake ([2]; pituitary gland, BCH 4 mM, L-phenylalanine 200 μM, L-leucine 5 mM, harmaline 2 mM): 95.3%
- RBrain of [3H]-ADMA in presence of inhibitor ([2]; pons, BCH 4 mM, α-methyl-D,L-tryptophan 500 μM, L-phenylalanine 200 μM, L-leucine 5 mM, harmaline 2 mM): 2.36±1.06 ml.100g^-1
- % inhibition of [3H]-ADMA uptake ([2]; pons): 90.4%
- % inhibition of [3H]-ADMA uptake ([2]; supernatant (brain parenchyma)): 65.8%
- RBrain of [3H]-ADMA in presence of inhibitor ([2]; supernatant, BCH 4 mM, α-methyl-D,L-tryptophan 500 μM, L-phenylalanine 200 μM, L-leucine 5 mM, harmaline 2 mM): 3.43±1.95 ml.100g^-1
- RBrain of [3H]-ADMA in presence of inhibitor [2, 10]: 1.81±0.71 ml.100g^-1
- % inhibition of [3H]-ADMA uptake [2, 10]: 91.4%
- % inhibition of [3H]-ADMA uptake ([2]; whole brain homogenate, L-phenylalanine 200 μM, L-leucine 5 mM): 78.9%

SMILES: N=C(N)NCCC[C@H](N)C(=O)O [[^3H]-arginine, L-arginine]
- Kp at 10 min ([3]; cerebellum, Arginine, tissue/plasma ratio, cerebellum, + 4mM BCH): 0.607
- Kp at 10 min ([3]; cerebellum, Difference (Arginine - Sucrose), cerebellum, + 4mM BCH): 0.575
- Kp at 10 min, […] ([3]; cerebellum, with 20 mM L-homoarginine, Arginine, tissue/plasma ratio, cerebellum, + 20mM L-Homoarginine): 0.0312
- Kp at 10 min, […] ([3]; choroid plexus, Arginine, tissue/plasma ratio, choroid plexus, + 4mM BCH): 2.01
- Kp at 10 min ([3]; choroid plexus, Difference (Arginine - Sucrose), choroid plexus, + 4mM BCH): 1.85
- Kp at 10 min ([3]; frontal cortex, Arginine, tissue/plasma ratio, frontal cortex, + 4mM BCH): 0.649
- Kp at 10 min ([3]; frontal cortex, Difference (Arginine - Sucrose), frontal cortex, + 4mM BCH): 0.617
- Kp at 10 min ([3]; frontal cortex, with L-homoarginine 20 mM in the artificial plasma, Arginine, tissue/plasma ratio, frontal cortex, + 20mM L-Homoarginine): 0.0351
- Kp at 10 min ([3]; hippocampus, Arginine, tissue/plasma ratio, hippocampus, + 4mM BCH): 0.477
- Kp at 10 min ([3]; hippocampus, Difference (Arginine - Sucrose), hippocampus, + 4mM BCH): 0.457
- Kp at 10 min ([3]; occipital cortex, Arginine, tissue/plasma ratio, occipital cortex, + 4mM BCH): 0.631
- Kp at 10 min ([3]; occipital cortex, Difference (Arginine - Sucrose), occipital cortex, + 4mM BCH): 0.6
- Kp at 10 min, […] ([3]; occipital cortex, with 20 mM L-homoarginine, Arginine, tissue/plasma ratio, occipital cortex, + 20mM L-Homoarginine): 0.0199
- Kp at 10 min ([3]; whole brain homogenate, Arginine, tissue/plasma ratio, homogenate, + 4mM BCH): 0.353
- Kp at 10 min ([3]; whole brain homogenate, Difference (Arginine - Sucrose), homogenate, + 4mM BCH): 0.332
- Kp at 10 min, […] ([3]; with 20 mM L-homoarginine, Arginine, tissue/plasma ratio, supernatant, + 20mM L-Homoarginine): 0.0216
- uptake into frontal cortex, times higher than into CSF ([1]; 10 minutes): 5.7 times
- uptake into pellet, times lower than into choroid plexus ([1]; 10 minutes): 39.5 times
- uptake of [3H]-arginine ([1]; CSF, 10 minutes): 9.53 ± 2.41 ml.100g^-1
- uptake of [3H]-arginine ([1]; capillary endothelial cell enriched pellet, 10 minutes): 6.47 ± 1.018 ml.100g^-1
- Arginine, tissue/plasma ratio ([1]; caudate nucleus): 0.6618 and 0.8652 and 0.401 and 0.4938 and 0.3347 and 0.5216
- Difference (Arginine - Sucrose) ([1]; caudate nucleus): 0.6456 and 0.7471 and 0.378 and 0.4593 and 0.3101 and 0.4829
- Arginine, tissue/plasma ratio ([1]; choroid plexus): 3.243 and 3.765 and 2.2598 and 3.422 and 1.518 and 2.959
- Difference (Arginine - Sucrose) ([1]; choroid plexus): 3.028 and 3.467 and 2.014 and 2.791 and 1.394 and 2.658
- uptake of [3H]-arginine ([1]; choroid plexus, 10 minutes): 255.86 ± 30.41 ml.100g^-1
- Arginine, tissue/plasma ratio ([1]; frontal cortex): 0.8204 and 0.8688 and 0.3825 and 0.5285 and 0.3141 and 0.5494
- Difference (Arginine - Sucrose) ([1]; frontal cortex): 0.7931 and 0.8428 and 0.3551 and 0.4902 and 0.2926 and 0.505
- uptake of [3H]-arginine ([1]; frontal cortex, 10 minutes): 54.65 ± 9.21 ml.100g^-1
- Arginine, tissue/plasma ratio ([1]; hippocampus): 0.5129 and 0.6918 and 0.3896 and 0.4547 and 0.2706 and 0.4979
- Difference (Arginine - Sucrose) ([1]; hippocampus): 0.4962 and 0.6689 and 0.3625 and 0.4201 and 0.2493 and 0.4621
- Arginine, tissue/plasma ratio ([1]; hypothalamus): 0.9811 and 1.538 and 0.3381 and 0.6951 and 0.2905 and 0.3696
- Difference (Arginine - Sucrose) ([1]; hypothalamus): 0.9489 and 1.477 and 0.3149 and 0.634 and 0.2579 and 0.3397
- Arginine, tissue/plasma ratio ([1]; occipital cortex): 0.6317 and 0.7248 and 0.327 and 0.4186 and 0.2687 and 0.5347
- Difference (Arginine - Sucrose) ([1]; occipital cortex): 0.6113 and 0.7014 and 0.3051 and 0.3893 and 0.251 and 0.4973
- Difference (Arginine - Sucrose) ([1]; pineal gland): 1.49 and 0.1187 and 0.66 and 1.347 and 0.9026 and 0.5878
- Arginine, tissue/plasma ratio ([1]; pituitary gland): 3.254 and 2.641 and 1.189 and 1.192 and 1.144 and 2.275
- Difference (Arginine - Sucrose) ([1]; pituitary gland): 3.08 and 2.441 and 0.973 and 1.116 and 1.019 and 2.001
- Arginine, tissue/plasma ratio ([1]; thalamus): 0.9502 and 1.029 and 0.4051 and 0.5618 and 0.2525 and 0.5368
- Difference (Arginine - Sucrose) ([1]; thalamus): 0.929 and 0.9992 and 0.362 and 0.5168
